Laboratory results as given in PubChem BioAssay (NCI).
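Where inhibition never reached the appropriate level, the endpoint shown equals the highest concentration tested. Otherwise, values were interpolated linearly from a five-concentration, 48-hour dose response in 96-well plates. Definition used: TGI = concentration required for complete inhibition of growth.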

Legend:
Test in all cases: NCI-60 cell line screen, 48 h
786-0 renal = system: 786-0 renal
A498 renal = system: A498 renal
A549 NSCLC = system: A549 NSCLC
ACHN renal = system: ACHN renal
CAKI-1 renal = system: CAKI-1 renal
CCRF-CEM leukemia = system: CCRF-CEM leukemia
COLO 205 colon = system: COLO 205 colon
DU-145 prostate = system: DU-145 prostate
EKVX NSCLC = system: EKVX NSCLC
HCC-2998 colon = system: HCC-2998 colon
HCT-116 colon = system: HCT-116 colon
HCT-15 colon = system: HCT-15 colon
HL-60(TB) leukemia = system: HL-60(TB) leukemia
HOP-62 NSCLC = system: HOP-62 NSCLC
HOP-92 NSCLC = system: HOP-92 NSCLC
HT29 colon = system: HT29 colon
IGROV1 ovarian = system: IGROV1 ovarian
K-562 leukemia = system: K-562 leukemia
KM12 colon = system: KM12 colon
LOX IMVI melanoma = system: LOX IMVI melanoma
M14 melanoma = system: M14 melanoma
MALME-3M melanoma = system: MALME-3M melanoma
MCF7 breast = system: MCF7 breast
MDA-MB-231 breast = system: MDA-MB-231 breast
MDA-MB-435 = system: MDA-MB-435
MDA-N = system: MDA-N
MOLT-4 leukemia = system: MOLT-4 leukemia
NCI-H226 lung = system: NCI-H226 lung
NCI-H23 lung = system: NCI-H23 lung
NCI-H460 lung = system: NCI-H460 lung
NCI-H522 lung = system: NCI-H522 lung
NCI/ADR-RES ovarian = system: NCI/ADR-RES ovarian
OVCAR-3 ovarian = system: OVCAR-3 ovarian
OVCAR-4 ovarian = system: OVCAR-4 ovarian
OVCAR-5 ovarian = system: OVCAR-5 ovarian
OVCAR-8 ovarian = system: OVCAR-8 ovarian
PC-3 prostate = system: PC-3 prostate
RXF 393 renal = system: RXF 393 renal
SF-268 CNS = system: SF-268 CNS
SF-295 CNS = system: SF-295 CNS
SF-539 CNS = system: SF-539 CNS
SK-MEL-2 melanoma = system: SK-MEL-2 melanoma
SK-MEL-28 melanoma = system: SK-MEL-28 melanoma
SK-OV-3 ovarian = system: SK-OV-3 ovarian
SN12C renal = system: SN12C renal
SNB-19 CNS = system: SNB-19 CNS
SNB-75 CNS = system: SNB-75 CNS
SW-620 colon = system: SW-620 colon
T-47D breast = system: T-47D breast
TK-10 renal = system: TK-10 renal
U251 CNS = system: U251 CNS
UACC-257 melanoma = system: UACC-257 melanoma
UACC-62 melanoma = system: UACC-62 melanoma
UO-31 renal = system: UO-31 renal
HS 578T breast = system: HS 578T breast
SK-MEL-5 melanoma = system: SK-MEL-5 melanoma
SR leukemia = system: SR leukemia

S=c1[nH]nc(COc2ccc(Cl)cc2)n1-c1ccccc1 gave a TGI (786-0 renal) of over 100 µM, a TGI (A498 renal) of over 100 µM and a TGI (A549 NSCLC) of over 100 µM. It also gave a TGI (ACHN renal) of over 100 µM, a TGI (CAKI-1 renal) of 65.8 µM and a TGI (CCRF-CEM leukemia) of over 100 µM. The TGI (COLO 205 colon) was over 100 µM, the TGI (DU-145 prostate) was over 100 µM and the TGI (EKVX NSCLC) was over 100 µM. For the same molecule, the TGI (HCC-2998 colon) was over 100 µM, the TGI (HCT-116 colon) was over 100 µM and the TGI (HCT-15 colon) was over 100 µM. The TGI (HL-60(TB) leukemia) was over 100 µM, the TGI (HOP-62 NSCLC) was over 100 µM and the TGI (HOP-92 NSCLC) was over 100 µM. For the same molecule, the TGI (HT29 colon) was over 100 µM, the TGI (IGROV1 ovarian) was over 100 µM and the TGI (K-562 leukemia) was over 100 µM. It also gave a TGI (KM12 colon) of over 100 µM, a TGI (LOX IMVI melanoma) of over 100 µM and a TGI (M14 melanoma) of over 100 µM. The TGI (MALME-3M melanoma) was over 100 µM, the TGI (MCF7 breast) was over 100 µM and the TGI (MDA-MB-231 breast) was over 100 µM. The TGI (MDA-MB-435) was over 100 µM, the TGI (MDA-N) was over 100 µM and the TGI (MOLT-4 leukemia) was over 100 µM. For the same molecule, the TGI (NCI-H226 lung) was over 100 µM, the TGI (NCI-H23 lung) was over 100 µM and the TGI (NCI-H460 lung) was over 100 µM. It also gave a TGI (NCI-H522 lung) of 23.3 µM, a TGI (NCI/ADR-RES ovarian) of over 100 µM and a TGI (OVCAR-3 ovarian) of over 100 µM. It also gave a TGI (OVCAR-4 ovarian) of over 100 µM, a TGI (OVCAR-5 ovarian) of over 100 µM and a TGI (OVCAR-8 ovarian) of over 100 µM. For the same molecule, the TGI (PC-3 prostate) was over 100 µM, the TGI (RXF 393 renal) was over 100 µM and the TGI (SF-268 CNS) was over 100 µM. It also gave a TGI (SF-295 CNS) of over 100 µM, a TGI (SF-539 CNS) of over 100 µM and a TGI (SK-MEL-2 melanoma) of over 100 µM. It also gave a TGI (SK-MEL-28 melanoma) of over 100 µM, a TGI (SK-OV-3 ovarian) of over 100 µM and a TGI (SN12C renal) of over 100 µM. It also gave a TGI (SNB-19 CNS) of over 100 µM, a TGI (SNB-75 CNS) of over 100 µM and a TGI (SW-620 colon) of over 100 µM. It also gave a TGI (T-47D breast) of over 100 µM, a TGI (TK-10 renal) of over 100 µM and a TGI (U251 CNS) of over 100 µM. The TGI (UACC-257 melanoma) was over 100 µM, the TGI (UACC-62 melanoma) was over 100 µM and the TGI (UO-31 renal) was over 100 µM.

COC1(OC)CCCCCCCCC(OC)(OC)CCCCCCCC1 showed a TGI (786-0 renal) of over 100 µM, a TGI (A498 renal) of over 100 µM and a TGI (A549 NSCLC) of over 100 µM. It also gave a TGI (ACHN renal) of over 100 µM, a TGI (CAKI-1 renal) of over 100 µM and a TGI (COLO 205 colon) of over 100 µM. The TGI (DU-145 prostate) was over 100 µM, the TGI (EKVX NSCLC) was over 100 µM and the TGI (HCC-2998 colon) was over 100 µM. For the same molecule, the TGI (HCT-116 colon) was over 100 µM, the TGI (HCT-15 colon) was over 100 µM and the TGI (HL-60(TB) leukemia) was over 100 µM. It also gave a TGI (HOP-62 NSCLC) of over 100 µM, a TGI (HOP-92 NSCLC) of over 100 µM and a TGI (HS 578T breast) of over 100 µM. The TGI (HT29 colon) was over 100 µM, the TGI (IGROV1 ovarian) was over 100 µM and the TGI (K-562 leukemia) was over 100 µM. For the same molecule, the TGI (KM12 colon) was over 100 µM, the TGI (LOX IMVI melanoma) was over 100 µM and the TGI (M14 melanoma) was over 100 µM. The TGI (MALME-3M melanoma) was over 100 µM, the TGI (MCF7 breast) was over 100 µM and the TGI (MDA-MB-435) was over 100 µM. The TGI (MDA-N) was over 100 µM, the TGI (NCI-H226 lung) was over 100 µM and the TGI (NCI-H23 lung) was over 100 µM. It also gave a TGI (NCI-H460 lung) of over 100 µM, a TGI (NCI-H522 lung) of over 100 µM and a TGI (NCI/ADR-RES ovarian) of over 100 µM. It also gave a TGI (OVCAR-3 ovarian) of over 100 µM, a TGI (OVCAR-5 ovarian) of over 100 µM and a TGI (OVCAR-8 ovarian) of over 100 µM. For the same molecule, the TGI (PC-3 prostate) was over 100 µM, the TGI (RXF 393 renal) was over 100 µM and the TGI (SF-268 CNS) was over 100 µM. It also gave a TGI (SF-295 CNS) of over 100 µM, a TGI (SF-539 CNS) of over 100 µM and a TGI (SK-MEL-2 melanoma) of over 100 µM. It also gave a TGI (SK-MEL-28 melanoma) of over 100 µM, a TGI (SK-MEL-5 melanoma) of over 100 µM and a TGI (SK-OV-3 ovarian) of over 100 µM. For the same molecule, the TGI (SN12C renal) was over 100 µM, the TGI (SNB-19 CNS) was over 100 µM and the TGI (SNB-75 CNS) was over 100 µM. It also gave a TGI (SR leukemia) of over 100 µM, a TGI (SW-620 colon) of over 100 µM and a TGI (T-47D breast) of over 100 µM. It also gave a TGI (TK-10 renal) of over 100 µM, a TGI (U251 CNS) of over 100 µM and a TGI (UACC-257 melanoma) of over 100 µM. For the same molecule, the TGI (UACC-62 melanoma) was over 100 µM and the TGI (UO-31 renal) was 10.9 µM.
